{"source": "patent US20240208901A1", "about": "“Deuterated 3,3'-Diselenodipropionic Acid (DSePA) and Its Use as an Anticancer or Radioprotective Agent” (Secretary, Department of Atomic Energy, priority 2022, published 2024)", "type_in_all_cases": "cell-based, human", "key": {"A549 cells": {"test_system": "A549 cells", "assay": "Clonogenic assay, combinatorial treatment with γ-irradiation in A549 cells", "procedure": "Further, clonogenic assay is considered as the gold standard method for evaluating the anticancer activity of any compound and is also a good indicator of the in vivo efficacy of any anticancer compound. Therefore, the therapeutic index of DSePA and D-DSePA in A549/WI-38 cells was also validated by employing the clonogenic assay. For this, A549/WI-38 cells were treated with the varying concentrations (0.1-2 μM)/(1-500 μM) of DSePA/D-DSePA for seven days and the survival fraction was calculated by counting the number of surviving clones (FIG. 11A). The plot of survival fraction verses the concentration of DScPA/D-DSCPA was used to estimate the IC50 of above compounds to inhibit the growth of A549/WI-38 cells. […] This clearly confirmed that deuteration of DScPA reduced its toxicity in normal cells without compromising its efficacy in cancer cells. Since anticancer agents are intended to be used in combination with radiation, DSePA/D-DSePA at a treatment concentration of 0.5 μM (dose close to IC50 as determined by clonogenic assay) was combined with varying absorbed doses (2-8 Gy) of γ-irradiation and the effect of combinatorial treatment on the viability of A549 cells was determined by clonogenic assay (FIG. 12A & 12B). For this, A549 cells exposed to the varying absorbed doses (2-8 Gy) of γ-radiation were immediately treated with DScPA/D-DScPA and cultured for seven days prior to clonogenic assay. […] The D10 value of the combinatorial treatment involving DScPA estimated was 4.5 Gy (FIG. 12B). Similarly, D10 value of the combinatorial treatment involving D-DSePA estimated was 4 Gy. From these values, the dose modification factor (DMF or the ratio of the D10 of combinatorial treatment to that of D10 of radiation) of DScPA and D-DScPA estimated was 0.87±0.01 and 0.83±0.02 respectively. […] While the objective of radiotherapy is to achieve tumor control, it is also known to cause normal tissue toxicity. Previously, DSePA has been reported to protect normal cells from lethal effects of γ-radiation. Thus radio-protective activity of D-DSePA was compared with DScPA in terms of their abilities to protect non-cancerous lung fibroblast (WI-38) cells against γ-irradiation induced cell death. For this, WI-38 cells were pretreated with DSePA/D-DScPA for 24 h at an identical concentration of 0.5 μM (close to IC50 required to inhibit growth of A549 lung cancer cells by clonogenic assay) and then exposed to varying doses (2-12 Gy) of γ-irradiation. The survival of cells against radiation exposure was estimated by clonogenic assay and the dose response curve was prepared in the presence and absence of drug (DSePA/D-DScPA) (FIG. 12C & 12D). By using this dose response curve, the dose modification factor (DMF or the ratio of the D10 of radiation plus drug and D10 of radiation alone) of DSePA and D-DSePA estimated was 1.12±0.03 and 1.16±0.05 respectively.\n(§1) Clonogenic assay—Clonogenic assay was performed according to the method reported previously. […] After 7 days, colonies were fixed with absolute methanol for 5 min, stained with 0.5% crystal violet for 5 min, washed with distilled water to remove excess stain and counted manually under a stereo microscope. […] The plating efficiency and the survival fraction under irradiated and drug treated conditions were calculated using following formulae: […]\n(§2) The plating efficiency of A549 and WI38 cells was calculated by seeding ˜300 and ˜500 cells respectively. […]"}, "[1]": {"test_system": "lung cancer cell lines (A549, H1975 and H3122) versus normal lung cells (WI-38 and WI-26 VA4)", "assay": "Therapeutic index by MTT assay, lung cancer cell lines versus normal lung cells", "conditions": "for Therapeutic Index (IC50 in normal cell / IC50 in cancer cells): 48 h post-treatment", "procedure": "Therefore, D-DSePA was compared with un-deuterated DSePA for its anticancer activity in A549, H1975 and H3122 cell lines which are representative of NSCLC. For this, above cells were treated with the varying concentrations (0.1-100 μM) of DSePA/D-DSePA for 48 h and the cell viability was determined by MTT assay (FIG. 9A-C). The plot of percent (%) cytotoxicity (100-% viability) versus the concentration of DSePA/D-DSePA was used to estimate the half maximum concentration (IC50) of above compounds to inhibit the proliferation of cells. […] Similarly, the toxicity of DSePA/D-DSePA was studied in non-cancerous lung fibroblast cells, WI-38 and WI-26 VA4 in the concentration range of 0.1 to 1000 μM at 48 h post treatment by MTT assay (FIG. 9D and 9E). […] Employing these values, the therapeutic index (IC50 in normal lung cell/IC50 in lung cancer cell) of DSePA and D-DSePA in different pairs of normal versus cancerous cells (viz., A549/WI-38, A549/WI-26 VA4, H1975/WI-38, H1975/WI-26 VA4, H3122/WI-38 and H3122/WI-26 VA4) was calculated (Table-3). […] The average therapeutic index of DSePA and D-DSePA estimated from above study was 11.05±1.5 and 78.7±29.2 respectively (FIG. 10).\nMTT Assay—To evaluate the anti-proliferative effect of D-DScPA and DScPA, Cells (˜5×10^3) suspended in 100 μl of complete culture medium were seeded in each well of 96 well plates. The cells were allowed to attach and grow for 24 h, treated with desired concentrations of D-DSePA/DScPA dissolved in culture medium for 48 h and then processed for MTT assay as described in literature. The percentage (%) cytotoxicity was calculated from the decrease in absorbance at 570 nm of treated groups as compared to that of control group. The % cytotoxicity was plotted as a function of the concentration of D-DSePA and DSePA and from this curve, the concentration of D-DSePA/DScPA causing 50% toxicity (IC50) was estimated. The therapeutic index was calculated by normalizing the IC50 concentration of D-DSePA/DSePA in non-cancerous cells to that in cancerous cells."}, "WI-38 cells": {"test_system": "WI-38 cells", "assay": "Clonogenic assay, radioprotection of WI-38 cells against γ-irradiation", "conditions": "WI-38 cells pretreated 24 h with 0.5 μM drug, γ-irradiation 2-12 Gy, clonogenic assay", "procedure": "Further, clonogenic assay is considered as the gold standard method for evaluating the anticancer activity of any compound and is also a good indicator of the in vivo efficacy of any anticancer compound. Therefore, the therapeutic index of DSePA and D-DSePA in A549/WI-38 cells was also validated by employing the clonogenic assay. For this, A549/WI-38 cells were treated with the varying concentrations (0.1-2 μM)/(1-500 μM) of DSePA/D-DSePA for seven days and the survival fraction was calculated by counting the number of surviving clones (FIG. 11A). The plot of survival fraction verses the concentration of DScPA/D-DSCPA was used to estimate the IC50 of above compounds to inhibit the growth of A549/WI-38 cells. […] This clearly confirmed that deuteration of DScPA reduced its toxicity in normal cells without compromising its efficacy in cancer cells. Since anticancer agents are intended to be used in combination with radiation, DSePA/D-DSePA at a treatment concentration of 0.5 μM (dose close to IC50 as determined by clonogenic assay) was combined with varying absorbed doses (2-8 Gy) of γ-irradiation and the effect of combinatorial treatment on the viability of A549 cells was determined by clonogenic assay (FIG. 12A & 12B). For this, A549 cells exposed to the varying absorbed doses (2-8 Gy) of γ-radiation were immediately treated with DScPA/D-DScPA and cultured for seven days prior to clonogenic assay. […] The D10 value of the combinatorial treatment involving DScPA estimated was 4.5 Gy (FIG. 12B). […]\nas §1, §2"}}}
{"compound": "O=C(O)CC[Se][Se]CCC(=O)O", "note": "[DSePA, 3,3′-diselenodipropionic acid]", "values": [{"measurement": "dose modification factor (DMF, D10 of combinatorial treatment / D10 of radiation)", "setting": "A549 cells; 0.5 μM drug immediately after γ-radiation (2-8 Gy)", "value": "0.87±0.01"}, {"measurement": "D10 value (decimal reduction dose) of the combinatorial treatment", "setting": "A549 cells; γ-radiation 2-8 Gy then 0.5 μM drug immediately, seven days, radiation alone D10 5 Gy", "value": 4.5, "unit": "Gy"}, {"measurement": "Therapeutic Index (IC50 in normal cell / IC50 in cancer cells)", "setting": "[1]; A549/WI-26 VA4, MTT assay", "value": "9.9 ± 0.5"}, {"measurement": "Therapeutic Index (IC50 in normal cell / IC50 in cancer cells)", "setting": "[1]; A549/WI-38, MTT assay", "value": "11.2 ± 0.6"}, {"measurement": "Therapeutic Index (IC50 in normal cell / IC50 in cancer cells)", "setting": "[1]; H1975/WI-26 VA4, MTT assay", "value": "14.2 ± 0.7"}, {"measurement": "Therapeutic Index (IC50 in normal cell / IC50 in cancer cells)", "setting": "[1]; H1975/WI-38, MTT assay", "value": "16.1 ± 0.8"}, {"measurement": "Therapeutic Index (IC50 in normal cell / IC50 in cancer cells)", "setting": "[1]; H3122/WI-26 VA4, MTT assay", "value": "7.0 ± 0.4"}, {"measurement": "Therapeutic Index (IC50 in normal cell / IC50 in cancer cells)", "setting": "[1]; H3122/WI-38, MTT assay", "value": "7.9 ± 0.4"}, {"measurement": "average therapeutic index", "setting": "[1]; mean of six normal/cancer cell pairs, mean±SEM (n=6), MTT assay", "value": "11.05±1.5"}, {"measurement": "dose modification factor (DMF, D10 of radiation plus drug / D10 of radiation alone)", "setting": "WI-38 cells", "value": "1.12±0.03"}]}
